Tests used:
[1] = tested on: patients with severe sepsis; test: ETASS multicenter randomized controlled trial: mortality, prognosis and SOFA in severe sepsis; format: in vivo, human
Protocol: We did a prospective, controlled, single-blinded, multi-center randomized clinical trial, which was conducted in the ICUs of six tertiary, teaching hospitals. The ethics committee of the First Affiliated Hospital of Sun Yat-sen University approved the protocol (200815). Written informed consents were obtained from the patients or next of kin for patients unable to consent. The trial was registered with ClinicalTrials.gov, number NCT00711620.
From May 12, 2008 to Dec. 22, 2010 patients diagnosed with severe sepsis admitted to ICUs were enrolled in the trial. The criteria for severe sepsis were a modification of those defined by Bernard et al. (see Additional file 1).
To reduce the impact on the results from heterogeneity of severe sepsis and inter-hospital variation in patient sources as much as possible, stratification by investigative center in combination with computer-generated block randomization (block size=8) according to the sequence of recruitment was employed in the enrollment process. The method of randomization and block size were blinded until the data analysis was finished completely. Clinicians who enrolled the subjects were not involved in data collection. Eligible patients were randomly assigned in a 1:1 ratio in each hospital with four in each block assigned to receive the study drug and the other four to the control group after telephone verification through a randomization center. The allocation sequence was concealed from the researchers. To prevent advance knowledge of treatment assignment and subversion of the allocation sequence, trial entry sheet of the case report form (CRF) was filled out and informed consent was obtained before disclosing the unique participant number and the allocated group; the unique number generated could not be changed and deleted afterward. We used normal saline as placebo. Patients were blinded to the treatment assignments. All statistical analysis was done with masking maintained.
(§1) In the Tα1 group, patients received subcutaneous injections of 1.6 mg Tα1 (ZADAXIN™, SciClone Pharmaceuticals, Foster City, CA, USA) twice per day for five consecutive days, then once per day for two consecutive days. Prior to administration, the lyophilized powder is to be reconstituted with 1 ml of the provided diluent (sterile water for injection). After reconstitution, the final concentration of Tα1 is 1.6 mg/mL. In the control group, patients received subcutaneous injections of 1 mL normal saline twice per day for five consecutive days, then once per day for two consecutive days. According to trial protocol, therapy had to be started within 4 hrs after enrollment.
The treating physicians dictated patient care to current international guidelines, including adequate empiric antibiotic therapy based on current recommendations, ventilation regimen (pressure control mode), blood glucose control, resuscitation and hemodynamic support, organ support, sedation or analgesia as needed and adequate nutrition. Empirical antibiotic therapy was considered adequate when at least one effective drug was included in the empirical antibiotic treatment within the first 24 hrs of the admission to the ICU and the optimal dose and the correct route of administration were in accordance with medical standards and in ICU survivors without microbiologically detected microorganism in bloodstream or focus. When the empirical antibiotic therapy had to be changed after microbiological detection of microorganism, it was considered inadequate, whereas in non-survivors without microbiologically detected microorganism in bloodstream or focus it was considered not evaluable.
The primary efficacy end point was death from any cause and was assessed 28 days after the initiation of treatment assignment. […]

[2] = tested on: mHLA-DR (monocyte human leukocyte antigen-DR); test: ETASS trial: monocyte HLA-DR expression (% of positive monocytes); format: in vivo
Protocol: as §1
(§2) The primary efficacy end point was death from any cause and was assessed 28 days after the initiation of treatment assignment. Secondary outcomes included dynamic changes of Sequential Organ Failure Assessment (SOFA), CD 4+/CD8+ and monocyte human leukocyte antigen-DR (mHLA-DR) expression measured on day 0 (the day of enrollment), 3 and 7 in both groups. All mHLA-DR measurements were done in the center laboratory of the First Affiliated Hospital of Sun Yat-sen University. 1 ml unprocessed EDTA whole blood was stored on ice at once after drawing and was transferred to the center laboratory as soon as possible to guarantee measurement within 3 hrs after blood drawing. The method of measuring mHLA-DR was mentioned in our previous paper. Once patients were enrolled, data including demographic characteristics, microbiological findings (primary infection source and the identified microorganisms) and comorbidities were collected when available. The following clinical parameters were recorded on specific days after enrollment: on day 0, the severity as assessed by the Acute Physiology and Chronic Health Evaluation II (APACHE II); on day 0, 3, 7, SOFA, hematologic and biochemical findings, results of mHLA-DR, CD4+/CD8+ tests. The time of the first organ dysfunction was retrospectively estimated according to objective data such as blood gas analysis when the patient was enrolled.
(§3) Based on a previous study, a sample size of 334 patients was required to show a reduction in 28-day mortality rate from 50% to 35% by Tα1 treatment, with a two-sided test (a error=5%; power=80%). Considering a possible drop-out rate of 10%, the trial would need to enroll 368 patients in total. Demographic data, outcome data and other laboratory parameters were summarized by frequency for categorical variables and mean±standard deviation (SD) or median with interquartile range (IQR) for continuous variables. Proportions were compared with chi-square test or Fisher's exact test. Continuous variables were tested by means of t test with normal distribution or Wilcoxon rank-sum test with non-normal distribution. The comparison of primary outcome between two groups was performed by means of Cochran-Mantel-Haenszel test, in which patients were stratified on a number of baseline covariates such as mHLA-DR, scores of APACHE and SOFA, surgical and cancer history, sex and age. The corresponding relative risks (RRs) with 95% confidence intervals (Cis) were computed with logit-adjusted method. Kaplan-Meier estimates without adjustment for baseline covariates were used for survival time analysis, and log-rank tests for comparison. To estimate mean changes from baseline in laboratory parameters, linear mixed models for repeated measures were employed, taking into account the clustering of participating centers and repeated measurements within patients. This model included terms for baseline measurement, treatment group, visit, and treatment×visit interaction. Least-squares means with 95% CIs were reported. We also analyzed the efficacy parameters of the study drug in different prespecified subgroups. The heterogeneity of treatment effects among subgroups was assessed with use of interaction tests. […]

CD4+/CD8+ = test: ETASS trial: CD4+/CD8+ ratio; format: in vivo, human
Protocol: as §1, §2, §3

[3] = tested on: patients with severe sepsis; test: ETASS trial: safety and tolerability assessment; format: in vivo, human; conditions: for drug-related serious/severe adverse events: assessed by the investigator
Protocol: as §1
Safety and tolerability assessment of Tα1 (see Additional file 3) was based on the comparison of all available information obtained from the two groups with respect to detected outliers in laboratory safety data, drug-related serious adverse events (assessed by the investigator) and deterioration of organ and system function (assessed by the individual SOFA component scoring for respiratory, cardiovascular, hepatic, coagulation, renal and nervous systems that arose during the treatment).

[4] = 1.6 mg s.c. twice per day 5 days, then once per day 2 days, n = 181
[5] = during the 28-day study period, n = 181

thymosin alpha 1 [Tα1]
28-day mortality (death from any cause), number of patients [1, 4]: 47 | 28-day mortality (death from any cause), rate [1, 4]: 26.0% | 28-day mortality (death from any cause), rate ([1]; 1.6 mg s.c. twice per day 5 days, then once per day 2 days, n = 181, listed as Talpha1): 26.0% | 28-day mortality (death from any cause), rate ([1]; 1.6 mg s.c. twice per day 5 days, then once per day 2 days, n = 181, listed as TαI): (26.0%) | survival after enrollment vs control group (Kaplan-Meier, log rank) ([1]; 28 days, log rank P=0.049): survived longer | SOFA score, Mean (95% CI) ([1]; Day 0 (day of enrollment)): 7.9 | SOFA score, Mean (95% CI) ([1]; Day 3): 6.1 | SOFA score, Mean (95% CI) ([1]; Day 7): 5.3 | SOFA score ΔDay 3, between groups difference ([1]; Tα1 group vs control group): −0.5 | SOFA score ΔDay 7, between groups difference ([1]; Tα1 group vs control group): −0.7 | SOFA score change ΔDay 3 ([1]; day 3 compared with day 0): −1.8 | SOFA score change ΔDay 7 ([1]; day 7 compared with day 0): −2.5 | ICU-free days, Median (95% CI) [1, 5]: 10.0 days | Ventilation-free days, Median (95% CI) [1, 5]: 18.0 days | relative risk of death in hospital compared to the control group ([1]; in vivo): 0.73 | Duration of ventilation, Median (IQR) ([1]; n = 181): 7.0 | ICU stay, Median (IQR) ([1]; n = 181): 11.0 | In-ICU mortality, number of patients ([1]; n = 181): 35 | In-ICU mortality, rate ([1]; n = 181): (19.3%) | In-hospital mortality, number of patients ([1]; n = 181): 52 | In-hospital mortality, rate ([1]; n = 181): 28.7% | In-hospital mortality, rate ([1]; n = 181, listed as TαI): (28.7%) | relative risk of death, non-cancerous patients ([1]; non-cancerous patients): 0.91 | relative risk of death within 28 days as compared to the control group ([1]; non-stratified analysis): 0.74 | relative risk of death compared to the control group, subgroup of patients with cancer ([1]; patients with cancer): 0.46 | primary end point in prespecified subgroups (APACHE II, SOFA, mHLA-DR, surgery or cancer history, sex, age) ([1]; stratified analyses): tended to improve outcome but without statistical significance | absolute reduction in 28-day mortality ([1]; vs control group): 9.0% | decreasing tendency within 7 days in SOFA score ([1]; vs control group): seemed to favor the Tα1 group | difference between the two groups in ICU mortality, ventilation-free days, ICU-free days, length of ICU stay and duration of mechanical ventilation ([1]; vs control group): no significant difference | mHLA-DR, Mean (95% CI) ([2]; Day 0 (day of enrollment)): 51.8% | mHLA-DR, Mean (95% CI) ([2]; Day 3): 59.8% | mHLA-DR, Mean (95% CI) ([2]; Day 7): 68.9% | mean difference in mHLA-DR changes between the two groups, day 3 ([2]; Tα1 group vs control group): 3.9% | mean difference in mHLA-DR changes between the two groups, day 7 ([2]; Tα1 group vs control group): 5.8% | mHLA-DR mean change from baseline ΔDay 3 ([2]; day 3 compared with day 0): 8.0% | mHLA-DR mean change from baseline ΔDay 7 ([2]; day 7 compared with day 0): 17.0% | ratio of CD4+/CD8+ during the 7 days (CD4+/CD8+; 7 days): remained unchanged | CD4+/CD8+, Mean (95% CI) (CD4+/CD8+; Day 0 (day of enrollment)): 2.5 | CD4+/CD8+, Mean (95% CI) (CD4+/CD8+; Day 3): 2.7 | CD4+/CD8+, Mean (95% CI) (CD4+/CD8+; Day 7): 2.5 | CD4+/CD8+ ΔDay 3, between groups difference (CD4+/CD8+; Tα1 group vs control group): 0 | CD4+/CD8+ ΔDay 7, between groups difference (CD4+/CD8+; Tα1 group vs control group): 0.1 | CD4+/CD8+ change ΔDay 3 (CD4+/CD8+; day 3 compared with day 0): 0.3 | CD4+/CD8+ change ΔDay 7 (CD4+/CD8+; day 7 compared with day 0): 0.1 | drug-related serious/severe adverse events [3]: no Tα1-related severe adverse event (SAE) was reported | drug-related serious/severe adverse events ([3]; listed as Talpha1): No serious drug-related adverse event | drug-related serious/severe adverse events ([3]; listed as Thymosin alpha 1): not observed | patients with impairment (SOFA component score deterioration): Cardiovascular system, frequency in parentheses ([3]; during the treatment, n = 181): (15.5) | patients with impairment (SOFA component score deterioration): Cardiovascular system, number ([3]; during the treatment, n = 181): 28 | patients with impairment (SOFA component score deterioration): Coagulation system, frequency in parentheses ([3]; during the treatment, n = 181): (26.5) | patients with impairment (SOFA component score deterioration): Coagulation system, number ([3]; during the treatment, n = 181): 48 | patients with impairment (SOFA component score deterioration): Hepatic system, frequency in parentheses ([3]; during the treatment, n = 181): (11.6) | patients with impairment (SOFA component score deterioration): Hepatic system, number ([3]; during the treatment, n = 181): 21 | patients with impairment (SOFA component score deterioration): Nervous system, frequency in parentheses ([3]; during the treatment, n = 181): (7.7) | patients with impairment (SOFA component score deterioration): Nervous system, number ([3]; during the treatment, n = 181): 14 | patients with impairment (SOFA component score deterioration): Renal system, frequency in parentheses ([3]; during the treatment, n = 181): (14.4) | patients with impairment (SOFA component score deterioration): Renal system, number ([3]; during the treatment, n = 181): 26 | patients with impairment (SOFA component score deterioration): Respiratory system, frequency in parentheses ([3]; during the treatment, n = 181): (13.3) | patients with impairment (SOFA component score deterioration): Respiratory system, number ([3]; during the treatment, n = 181): 24 | difference vs control in frequency of outlying laboratory values and all-cause organ or system impairment ([3]; in vivo): no statistically significant differences | treatment discontinuation due to intolerance or adverse events ([3]; in vivo): no treatment was discontinued | patients with Hypoglycemia, frequency in parentheses ([3]; n = 181): (4.4) | patients with Hypoglycemia, number ([3]; n = 181): 8 | patients with outlying values: ALT (U/L), frequency in parentheses ([3]; n = 181): (21.0) | patients with outlying values: ALT (U/L), number ([3]; n = 181): 38 | patients with outlying values: AST (U/L), frequency in parentheses ([3]; n = 181): (23.8) | patients with outlying values: AST (U/L), number ([3]; n = 181): 43 | patients with outlying values: Creatinine (mmol/L), frequency in parentheses ([3]; n = 181): (9.9) | patients with outlying values: Creatinine (mmol/L), number ([3]; n = 181): 18 | patients with outlying values: Hemoglobin (g/L), frequency in parentheses ([3]; n = 181): (14.9) | patients with outlying values: Hemoglobin (g/L), number ([3]; n = 181): 27 | patients with outlying values: Platelets 10^3/mm^3), frequency in parentheses ([3]; n = 181): (37.0) | patients with outlying values: Platelets 10^3/mm^3), number ([3]; n = 181): 67

Source: patent US20240091314A1, “USE OF THYMOSIN ALPHA FOR THE TREATMENT OF SEPSIS” (SciClone Pharmaceuticals, Inc., priority 2012, published 2024)
